# System: KRAS PDC multicell spheroid viability
# Assay: Anticancer human tumor 825966-067-R-J1-PDC patient-derived colon carcinoma cell line growth inhibition [KRAS2]
# Conditions: for viability, T/C: stronger effect = lower value
# In short: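 KRAS-mutant tumor cells were grown as spheroids with HUVEC endothelial cells and human MSCs as stroma. Targeted agents were tested alone and with KRAS pathway inhibitors. Doses started at or near clinical Cmax, or 10 microM, descending half-log.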
# [1] = curve of first compound, second compound 0.1 µM
# [2] = curve of first compound, second compound 0.316 µM
# [3] = curve of first compound, second compound 1 µM
# [4] = curve of first compound, second compound 3.16 µM
# [5] = curve of first compound, second compound 10 µM
# [6] = second compound 0.1 µM, first compound 0.0316 µM
# [7] = second compound 0.1 µM, first compound 0.1 µM
# [8] = second compound 0.1 µM, first compound 0.316 µM
# [9] = second compound 0.1 µM, first compound 1 µM
# [10] = second compound 0.1 µM, first compound 3.16 µM
# [11] = second compound 0.1 µM, first compound 10 µM
# [12] = second compound 0.316 µM, first compound 0.0316 µM
# [13] = second compound 0.316 µM, first compound 0.1 µM
# [14] = second compound 0.316 µM, first compound 0.316 µM
# [15] = second compound 0.316 µM, first compound 1 µM
# [16] = second compound 0.316 µM, first compound 3.16 µM
# [17] = second compound 0.316 µM, first compound 10 µM
# [18] = second compound 1 µM, first compound 0.0316 µM
# [19] = second compound 1 µM, first compound 0.1 µM
# [20] = second compound 1 µM, first compound 0.316 µM
# [21] = second compound 1 µM, first compound 1 µM
# [22] = second compound 1 µM, first compound 3.16 µM
# [23] = second compound 1 µM, first compound 10 µM
# [24] = second compound 3.16 µM, first compound 0.0316 µM
# [25] = second compound 3.16 µM, first compound 0.1 µM
# [26] = second compound 3.16 µM, first compound 0.316 µM
# [27] = second compound 3.16 µM, first compound 1 µM
# [28] = second compound 3.16 µM, first compound 3.16 µM
# [29] = second compound 3.16 µM, first compound 10 µM
# [30] = second compound 10 µM, first compound 0.0316 µM
# [31] = second compound 10 µM, first compound 0.1 µM
# [32] = second compound 10 µM, first compound 0.316 µM
# [33] = second compound 10 µM, first compound 1 µM
# [34] = second compound 10 µM, first compound 3.16 µM
# [35] = second compound 0.1 µM, first compound 0.01 µM
# [36] = second compound 0.316 µM, first compound 0.01 µM
# [37] = second compound 1 µM, first compound 0.01 µM
# [38] = second compound 3.16 µM, first compound 0.01 µM
# [39] = second compound 10 µM, first compound 0.01 µM
# 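Note: spheroids exposed to compounds for 7 days.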
# 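Throughout, for viability, T/C: 100% = DMSO vehicle control viability.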
compound,measurement,setting,value
Cn1nccc1Nc1nccc(-c2cc3c(s2)C(C)(C)N(CCN2CCOCC2)C3=O)n1 + CC1OCC2(CCN(c3cnc(Sc4ccnc(N)c4Cl)c(N)n3)CC2)C1N,IC50,[1],> 10000 nM
same,IC50,[2],> 10000 nM
same,IC50,[3],> 10000 nM
same,IC50,[4],> 10000 nM
same,IC50,[5],85 nM
same,"viability, T/C",[6],125%
same,"viability, T/C",[7],97.3%
same,"viability, T/C",[8],128%
same,"viability, T/C",[9],95.8%
same,"viability, T/C",[10],104%
same,"viability, T/C",[11],68.5%
same,"viability, T/C",[12],88.8%
same,"viability, T/C",[13],124%
same,"viability, T/C",[14],131%
same,"viability, T/C",[15],104%
same,"viability, T/C",[16],87.4%
same,"viability, T/C",[17],77.3%
same,"viability, T/C",[18],93%
same,"viability, T/C",[19],115%
same,"viability, T/C",[20],106%
same,"viability, T/C",[21],81.9%
same,"viability, T/C",[22],89.2%
same,"viability, T/C",[23],63.3%
same,"viability, T/C",[24],107%
same,"viability, T/C",[25],130%
same,"viability, T/C",[26],92.3%
same,"viability, T/C",[27],56.6%
same,"viability, T/C",[28],59%
same,"viability, T/C",[29],77%
same,"viability, T/C",[30],80.4%
same,"viability, T/C",[31],45%
same,"viability, T/C",[32],14.4%
same,"viability, T/C",[33],6.71%
same,"viability, T/C",[34],12.1%
same,"viability, T/C","second compound 10 µM, first compound 10 µM",43.9%
CC(C)n1nc(-c2ccc3oc(N)nc3c2)c2c(N)ncnc21,"viability, T/C",compound 0.00316 µM,127% [middle of 5 runs]
same,IC50,curve of compound,> 100 nM
O=C(c1cc(Cc2n[nH]c(=O)c3ccccc23)ccc1F)N1CCN(C(=O)C2CC2)CC1 + C=CC(=O)N1CCN(c2nc(OCC3CCCN3C)nc3c2CCN(c2cccc4cccc(C)c24)C3)CC1CC#N,IC50,"curve of first compound, second compound 0.0316 µM",> 10000 nM
same,IC50,[1],> 10000 nM
same,IC50,[2],> 10000 nM
same,IC50,[3],> 10000 nM
same,IC50,[4],> 10000 nM
same,"viability, T/C","second compound 0.0316 µM, first compound 0.0316 µM",100%
same,"viability, T/C","second compound 0.0316 µM, first compound 0.1 µM",119%
same,"viability, T/C","second compound 0.0316 µM, first compound 0.316 µM",96.8%
same,"viability, T/C","second compound 0.0316 µM, first compound 1 µM",77.1%
same,"viability, T/C","second compound 0.0316 µM, first compound 3.16 µM",98.4%
same,"viability, T/C","second compound 0.0316 µM, first compound 10 µM",80.2%
same,"viability, T/C",[6],98.7%
same,"viability, T/C",[7],100%
same,"viability, T/C",[8],91.8%
same,"viability, T/C",[9],92.3%
same,"viability, T/C",[10],109%
same,"viability, T/C",[11],95.4%
same,"viability, T/C",[12],94.7%
same,"viability, T/C",[13],91.2%
same,"viability, T/C",[14],104%
same,"viability, T/C",[15],94.1%
same,"viability, T/C",[16],96.2%
same,"viability, T/C",[17],97.9%
same,"viability, T/C",[18],87.1%
same,"viability, T/C",[19],94.8%
same,"viability, T/C",[20],91%
same,"viability, T/C",[21],93.2%
same,"viability, T/C",[22],99.6%
same,"viability, T/C",[23],125%
same,"viability, T/C",[24],96.3%
same,"viability, T/C",[25],108%
same,"viability, T/C",[26],111%
same,"viability, T/C",[27],110%
same,"viability, T/C",[28],123%
same,"viability, T/C",[29],109%
CC(=O)OC12COC1CC(O)C1(C)C(=O)C(O)C3=C(C)C(OC(=O)C(O)C(NC(=O)OC(C)(C)C)c4ccccc4)CC(O)(C(OC(=O)c4ccccc4)C21)C3(C)C (centres undefined) + C=CC(=O)N1CCN(c2nc(=O)n(-c3c(C)ccnc3C(C)C)c3nc(-c4c(O)cccc4F)c(F)cc23)C(C)C1,IC50,[1],< 10 nM
same,IC50,[2],< 10 nM
same,IC50,[3],< 10 nM
same,IC50,[4],< 10 nM
same,IC50,[5],< 10 nM
same,"viability, T/C",[35],33.9%
same,"viability, T/C",[6],30.6%
same,"viability, T/C",[7],20.5%
same,"viability, T/C",[8],20.9%
same,"viability, T/C",[9],22.8%
same,"viability, T/C",[10],31.5%
same,"viability, T/C",[36],26.8%
same,"viability, T/C",[12],24%
same,"viability, T/C",[13],24.6%
same,"viability, T/C",[14],26%
same,"viability, T/C",[15],28.5%
same,"viability, T/C",[16],29.7%
same,"viability, T/C",[37],27.9%
same,"viability, T/C",[18],34.3%
same,"viability, T/C",[19],25.9%
same,"viability, T/C",[20],23.9%
same,"viability, T/C",[21],23.1%
same,"viability, T/C",[22],22.5%
same,"viability, T/C",[38],38.3%
same,"viability, T/C",[24],27.3%
same,"viability, T/C",[25],25.5%
same,"viability, T/C",[26],23.2%
same,"viability, T/C",[27],26.9%
same,"viability, T/C",[28],39.2%
same,"viability, T/C",[39],30.8%
same,"viability, T/C",[30],34.9%
same,"viability, T/C",[31],24.1%
same,"viability, T/C",[32],26.7%
same,"viability, T/C",[33],17.1%
same,"viability, T/C",[34],24.5%
CC(=O)OC12COC1CC(O)C1(C)C(=O)C(O)C3=C(C)C(OC(=O)C(O)C(NC(=O)OC(C)(C)C)c4ccccc4)CC(O)(C(OC(=O)c4ccccc4)C21)C3(C)C (centres undefined) + COc1cc2nc(C)nc(NC(C)c3cc(N)cc(C(F)(F)F)c3)c2cc1OC1CCOC1,IC50,[1],< 10 nM
same,IC50,[2],< 10 nM
same,IC50,[3],< 10 nM
same,IC50,[4],< 10 nM
same,IC50,[5],< 10 nM
same,"viability, T/C",[35],18.9%
same,"viability, T/C",[6],24.6%
same,"viability, T/C",[7],35.8%
same,"viability, T/C",[8],17.3%
same,"viability, T/C",[9],26.8%
same,"viability, T/C",[10],34.5%
same,"viability, T/C",[36],23.8%
same,"viability, T/C",[12],29.3%
same,"viability, T/C",[13],23.1%
same,"viability, T/C",[14],38.4%
same,"viability, T/C",[15],24%
same,"viability, T/C",[16],44%
same,"viability, T/C",[37],16.9%
same,"viability, T/C",[18],29.3%
same,"viability, T/C",[19],27.6%
same,"viability, T/C",[20],18.7%
same,"viability, T/C",[21],24.7%
same,"viability, T/C",[22],29.6%
same,"viability, T/C",[38],16.6%
same,"viability, T/C",[24],13.4%
same,"viability, T/C",[25],29.2%
same,"viability, T/C",[26],16.4%
same,"viability, T/C",[27],21.3%
same,"viability, T/C",[28],25.1%
same,"viability, T/C",[39],11.7%
same,"viability, T/C",[30],15%
same,"viability, T/C",[31],19.3%
same,"viability, T/C",[32],14.2%
same,"viability, T/C",[33],20.9%
same,"viability, T/C",[34],12.4%
CC(=O)OC12COC1CC(O)C1(C)C(=O)C(O)C3=C(C)C(OC(=O)C(O)C(NC(=O)OC(C)(C)C)c4ccccc4)CC(O)(C(OC(=O)c4ccccc4)C21)C3(C)C (centres undefined),"viability, T/C",compound 0.01 µM,20.3% [middle of 5 runs]
same,"viability, T/C",compound 0.0316 µM,23.2% [middle of 5 runs]
same,"viability, T/C",compound 0.1 µM,18.5% [middle of 5 runs]
same,"viability, T/C",compound 0.316 µM,23.7% [middle of 5 runs]
same,"viability, T/C",compound 1 µM,28.8% [middle of 5 runs]
same,"viability, T/C",compound 3.16 µM,36.5% [middle of 5 runs]
same,IC50,curve of compound,< 10 nM
CC(C)n1nc(-c2ccc3oc(N)nc3c2)c2c(N)ncnc21 + CNCc1ccccc1-c1csc(C(C)Nc2nc(C)nc3cc(OC)c(OC)cc23)c1,IC50,[1],> 100 nM
same,IC50,[2],> 100 nM
same,IC50,[3],> 100 nM
same,IC50,[4],1.92 nM
same,IC50,[5],< 0.316 nM
same,"viability, T/C","second compound 0.1 µM, first compound 0.000316 µM",126%
same,"viability, T/C","second compound 0.1 µM, first compound 0.001 µM",113%
same,"viability, T/C","second compound 0.1 µM, first compound 0.00316 µM",159%
same,"viability, T/C",[35],185%
same,"viability, T/C",[6],128%
same,"viability, T/C",[7],154%
same,"viability, T/C","second compound 0.316 µM, first compound 0.000316 µM",117%
same,"viability, T/C","second compound 0.316 µM, first compound 0.001 µM",150%
same,"viability, T/C","second compound 0.316 µM, first compound 0.00316 µM",172%
same,"viability, T/C",[36],136%
same,"viability, T/C",[12],142%
same,"viability, T/C",[13],109%
same,"viability, T/C","second compound 1 µM, first compound 0.000316 µM",131%
same,"viability, T/C","second compound 1 µM, first compound 0.001 µM",135%
same,"viability, T/C","second compound 1 µM, first compound 0.00316 µM",156%
same,"viability, T/C",[37],132%
same,"viability, T/C",[18],76.4%
same,"viability, T/C",[19],84.2%
same,"viability, T/C","second compound 3.16 µM, first compound 0.000316 µM",66.2%
same,"viability, T/C","second compound 3.16 µM, first compound 0.001 µM",105%
same,"viability, T/C","second compound 3.16 µM, first compound 0.00316 µM",22.9%
same,"viability, T/C",[38],1.2%
same,"viability, T/C",[24],12.4%
same,"viability, T/C",[25],2.02%
same,"viability, T/C","second compound 10 µM, first compound 0.000316 µM",0.21%
same,"viability, T/C","second compound 10 µM, first compound 0.001 µM",0.64%
same,"viability, T/C","second compound 10 µM, first compound 0.00316 µM",1.75%
same,"viability, T/C",[39],0.23%
same,"viability, T/C",[30],0.41%
same,"viability, T/C",[31],0.41%

# From PubChem BioAssay AID1963865 (Molecular Pharmacology Branch, DTP, NCI, 2024)
